Measurements: patent publication US20100317647A1 (priority 2009, published 2010)
pIC50: −log10 of the molar value.

The compounds below were run against human Cat S (Homo sapiens, UniProt P25774) (assay: Cathepsin enzyme inhibition assay (fluorogenic peptide substrate cleavage)). Conditions: human Cat S 1 nM; substrate Z-Val-Val-Arg-AMC 20 μM; pH 6.5; fluorescence over 20 minutes.
Format: biochemical
Outline: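 IC50 values derived from fluorescence increase (ex 360 nm, em 465 nm) monitored for 20 minutes after substrate addition. Enzyme held at 1 nM with 20 μM Z-Val-Val-Arg-AMC, in pH 6.5 potassium phosphate buffer containing DTT, EDTA and Triton X-100.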

Sequence of human Cat S (P25774 115-331): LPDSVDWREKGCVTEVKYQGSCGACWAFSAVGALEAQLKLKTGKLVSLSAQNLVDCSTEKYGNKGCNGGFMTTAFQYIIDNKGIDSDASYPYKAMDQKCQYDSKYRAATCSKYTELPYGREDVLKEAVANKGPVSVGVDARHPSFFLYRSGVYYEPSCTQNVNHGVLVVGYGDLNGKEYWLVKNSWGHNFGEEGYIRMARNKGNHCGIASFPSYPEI

Row | SMILES | pIC50
1 | CO[C@@H]1C[C@H](S(=O)(=O)c2ccc(-c3cnn(CC(N)=O)c3)cc2C(F)(F)F)C[C@H]1C(=O)NC1(C#N)CC1 (racemic) [Example 194, (1R,2R,4R) and (1S,2S,4S)-4-[4-(1-Carbamoylmethyl-1H-pyrazol-4-yl)-2-trifluoromethyl-benzenesulfonyl]-2-methoxy-cyclopentanecarboxylic acid (1-cyano-cyclopropyl)-amide] | 9.15
2 | Cc1ccc(S(=O)(=O)C2C[C@@H](C(=O)NC3(C#N)CC3)[C@H](C(=O)N3CCC(F)(F)C3)C2)nn1 (mixture of isomers) [Example 224, (1R,2R,4S)-2-(3,3-Difluoro-pyrrolidine-1-carbonyl)-4-(6-methyl-pyridazine-3-sulfonyl)-cyclopentanecarboxylic acid (1-cyano-cyclopropyl)-amide and (1R,2R,4R)-2-(3,3-Difluoro-pyrrolidine-1-carbonyl)-4-(6-methyl-pyridazine-3-sulfonyl)-cyclopentanecarboxylic acid (1-cyano-cyclopropyl)-amide] | 7.49
3 | CO[C@@H]1C[C@H](S(=O)(=O)c2ccc(O[C@H](C)C(F)(F)F)cc2Cl)C[C@H]1C(=O)NC1(C#N)CC1 (racemic) [Example 60, (1R,2R,4R) and (1S,2S,4S)-4-[2-Chloro-4-((R/S)-2,2,2-trifluoro-1-methyl-ethoxy)-benzenesulfonyl]-2-methoxy-cyclopentanecarboxylic acid (1-cyano-cyclopropyl)-amide] | 7.58
4 | CCO[C@@H]1C[C@H](S(=O)(=O)c2ccc(-c3cnn(C)c3)cc2C(F)(F)F)C[C@H]1C(=O)NC1(C#N)CC1 (racemic) [Example 116, (1R,2R,4R) and (1S,2S,4S)-2-Ethoxy-4-[4-(1-methyl-1H-pyrazol-4-yl)-2-trifluoromethyl-benzenesulfonyl]-cyclopentanecarboxylic acid (1-cyano-cyclopropyl)-amide] | 9.52
5 | CCNC(=O)Cn1cc(-c2ccc(S(=O)(=O)[C@H]3C[C@@H](OC)[C@H](C(=O)NC4(C#N)CC4)C3)c(C(F)(F)F)c2)cn1 (racemic) [Example 223, (1R,2R,4R) and (1S,2S,4S)-4-[4-(1-Ethylcarbamoylmethyl-1H-pyrazol-4-yl)-2-trifluoromethyl-benzenesulfonyl]-2-methoxy-cyclopentanecarboxylic acid (1-cyano-cyclopropyl)-amide] | 9.51
6 | N#CC1(NC(=O)[C@@H]2C[C@@H](S(=O)(=O)c3ccc(Br)cc3C(F)(F)F)C[C@H]2OC2CCC2)CC1 (racemic) [Example 182, (1R,2R,4R) and (1S,2S,4S)-4-(4-Bromo-2-trifluoromethyl-benzenesulfonyl)-2-cyclobutoxy-cyclopentanecarboxylic acid (1-cyano-cyclopropyl)-amide] | 8.42
7 | N#CC1(NC(=O)[C@@H]2C[C@@H](S(=O)(=O)c3ccc(Br)cc3C(F)(F)F)C[C@H]2OC2CCS(=O)(=O)CC2)CC1 (racemic) [Example 181, (1R,2R,4R) and (1S,2S,4S)-4-(4-Bromo-2-trifluoromethyl-benzenesulfonyl)-2-[(tetrahydro-1,1-dioxo-2H-thiopyran-4-yl)oxy]-cyclopentanecarboxylic acid (1-cyano-cyclopropyl)-amide] | 8.88
8 | CNC(=O)Cn1cc(-c2ccc(S(=O)(=O)[C@H]3C[C@@H](OC)[C@H](C(=O)NC4(C#N)CC4)C3)c(C(F)(F)F)c2)cn1 (racemic) [Example 216, (1R,2R,4R) and (1S,2S,4S)-2-Methoxy-4-[4-(1-methylcarbamoylmethyl-1H-pyrazol-4-yl)-2-trifluoromethyl-benzenesulfonyl]-cyclopentanecarboxylic acid (1-cyano-cyclopropyl)-amide] | 8.80
9 | N#CCNC(=O)[C@@H]1CC(S(=O)(=O)c2ccccc2Cl)C[C@H]1COc1ccc(O)nn1 (mixture of isomers) [Example 107, (1R,2R,4R)-4-(2-Chloro-benzenesulfonyl)-2-(6-hydroxy-pyridazin-3-yloxymethyl)-cyclopentanecarboxylic acid cyanomethylamide and (1R,2R,4S)-4-(2-Chloro-benzenesulfonyl)-2-(6-hydroxy-pyridazin-3-yloxymethyl)-cyclopentanecarboxylic acid cyanomethylamide] | 7.69
10 | CC(=O)N1CCN(c2ccc(S(=O)(=O)[C@H]3C[C@@H](C(=O)NC4(C#N)CC4)[C@H](C(=O)N4CCC(F)(F)C4)C3)c(Cl)c2)CC1 [Example 209, (1R,2R,4S)-4-[4-(4-Acetyl-piperazin-1-yl)-2-chloro-benzenesulfonyl]-2-(3,3-difluoro-pyrrolidine-1-carbonyl)-cyclopentanecarboxylic acid (1-cyano-cyclopropyl)-amide] | 9.27
11 | Cc1cc(-c2ccc(S(=O)(=O)[C@H]3C[C@@H](OC4CCOCC4)[C@H](C(=O)NC4(C#N)CC4)C3)c(C(F)(F)F)c2)ccn1 (racemic) [Example 174, (1R,2R,4R) and (1S,2S,4S)-4-[4-(2-Methyl-pyridin-4-yl)-2-trifluoromethyl-benzenesulfonyl]-2-(tetrahydro-pyran-4-yloxy)-cyclopentanecarboxylic acid (1-cyano-cyclopropyl)-amide] | 9.77
12 | CO[C@@H]1C[C@H](S(=O)(=O)c2ccc(-c3ccc(F)cc3F)cc2C(F)(F)F)C[C@H]1C(=O)NC1(C#N)CC1 (racemic) [Example 62, (1R,2R,4R) and (1S,2S,4S)-4-(2′,4′-Difluoro-3-trifluoromethyl-biphenyl-4-sulfonyl)-2-methoxy-cyclopentanecarboxylic acid (1-cyano-cyclopropyl)-amide] | 8.85
13 | Cn1cc(-c2ccc(S(=O)(=O)[C@H]3C[C@@H](OC4CCC4)[C@H](C(=O)NC4(C#N)CC4)C3)c(C(F)(F)F)c2)cn1 (racemic) [Example 211, (1R,2R,4R) and (1S,2S,4S)-2-Cyclobutoxy-4-[4-(1-methyl-1H-pyrazol-4-yl)-2-trifluoromethyl-benzenesulfonyl]-cyclopentanecarboxylic acid (1-cyano-cyclopropyl)-amide] | 9.59
14 | CO[C@@H]1C[C@H](S(=O)(=O)c2ccc(-n3nc(C)ccc3=O)cc2Cl)C[C@H]1C(=O)NC1(C#N)CC1 (racemic) [Example 88, (1R,2R,4R) and (1S,2S,4S)-4-[2-Chloro-4-(3-methyl-6-oxo-6H-pyridazin-1-yl)-benzenesulfonyl]-2-methoxy-cyclopentanecarboxylic acid (1-cyano-cyclopropyl)-amide] | 8.04
15 | CO[C@@H]1C[C@H](S(=O)(=O)c2ccccc2C(F)(F)F)C[C@H]1C(=O)NC1(C#N)CC1 (racemic) [Example 46, (1R,2R,4R) and (1S,2S,4S)-2-Methoxy-4-(2-trifluoromethyl-benzenesulfonyl)-cyclopentanecarboxylic acid (1-cyano-cyclopropyl)-amide] | 8.24
16 | COC[C@@H]1C[C@@H](S(=O)(=O)c2ccccc2Cl)C[C@H]1C(=O)NC1(C#N)CC1 (single isomer, unassigned) [Example 106] | 6.00
17 | CO[C@@H]1C[C@H](S(=O)(=O)c2ccc(N3CCN(C(C)=O)CC3)cc2C(F)(F)F)C[C@H]1C(=O)NC1(C#N)CC1 (racemic) [Example 217, (1R,2R,4R) and (1S,2S,4S)-4-[4-(4-Acetyl-piperazin-1-yl)-2-trifluoromethyl-benzenesulfonyl]-2-methoxy-cyclopentanecarboxylic acid (1-cyano-cyclopropyl)-amide] | 8.99
18 | CO[C@@H]1C[C@H](S(=O)(=O)c2ccc(-c3cnn(CCO)c3)cc2C(F)(F)F)C[C@H]1C(=O)NC1(C#N)CC1 (racemic) [Example 170, (1R,2R,4R) and (1S,2S,4S)-4-{4-[1-(2-Hydroxy-ethyl)-1H-pyrazol-4-yl]-2-trifluoromethyl-benzenesulfonyl}-2-methoxy-cyclopentanecarboxylic acid (1-cyano-cyclopropyl)-amide] | 9.23
19 | CO[C@@H]1C[C@H](S(=O)(=O)c2ccc(-c3cnn(CC4(C)COC4)c3)cc2C(F)(F)F)C[C@H]1C(=O)NC1(C#N)CC1 (racemic) [Example 214, (1R,2R,4R) and (1S,2S,4S)-2-Methoxy-4-{4-[1-(3-methyl-oxetan-3-ylmethyl)-1H-pyrazol-4-yl]-2-trifluoromethyl-benzenesulfonyl}-cyclopentanecarboxylic acid (1-cyano-cyclopropyl)-amide] | 8.55
20 | N#CC1(NC(=O)[C@H]2CC[C@H](S(=O)(=O)c3ccc(-n4cccn4)cc3Cl)C2)CC1 (single isomer, unassigned) [Example 100] | 6.77
21 | CCCO[C@@H]1C[C@H](S(=O)(=O)c2ccccc2C(F)(F)F)C[C@H]1C(=O)NCC#N (racemic) [Example 55, (1R,2R,4R) and (1S,2S,4S)-2-Propoxy-4-(2-trifluoromethyl-benzenesulfonyl)-cyclopentanecarboxylic acid cyanomethyl-amide] | 8.68
22 | N#CC1(NC(=O)[C@@H]2C[C@H](S(=O)(=O)c3ccc(F)cc3Cl)C[C@H]2COc2ccc(F)cc2)CC1 (single isomer, unassigned) [Example 146] | 8.65
23 | CO[C@@H]1C[C@H](S(=O)(=O)c2ccc(-c3ccnn3C)cc2C(F)(F)F)C[C@H]1C(=O)NC1(C#N)CC1 (racemic) [Example 72, (1R,2R,4R) and (1S,2S,4S)-2-Methoxy-4-[4-(1-methyl-1H-pyrazol-5-yl)-2-trifluoromethyl-benzenesulfonyl]-cyclopentanecarboxylic acid (1-cyano-cyclopropyl)-amide] | 8.92
24 | N#CC1(NC(=O)[C@@H]2C[C@H](S(=O)(=O)c3ccccc3Cl)C[C@H]2CN2CCC(c3ccc(F)cc3)CC2)CC1 [Example 148, (1R,2R,4R)-4-(2-Chloro-benzenesulfonyl)-2-[4-(4-fluoro-phenyl)-piperidin-1-ylmethyl]-cyclopentanecarboxylic acid (1-cyano-cyclopropyl)-amide] | 6.29
